Results taken from BigSolDB 2.1.

Clc1cc(Cl)c(OCCBr)c(Cl)c1
solubility (mole fraction)
Details | in acetone | in acetonitrile | in ethanol | in isopropanol | in methanol | in n-heptane | in n-propanol
278.1 K | – | – | – | 0.00574 | 0.00356 | – | 0.0098
278.2 K | 0.094 | 0.0146 | 0.00698 | – | – | 0.0388 | –
283.1 K | 0.105 | – | 0.00794 | – | 0.00448 | 0.047 | –
283.2 K | – | 0.0176 | – | 0.00688 | – | – | 0.0105
288.1 K | 0.117 | – | – | – | 0.00563 | 0.057 | –
288.2 K | – | 0.0211 | 0.0086 | 0.00825 | – | – | 0.0113
293.1 K | 0.131 | 0.0253 | 0.00968 | 0.0099 | – | 0.069 | –
293.2 K | – | – | – | – | 0.0071 | – | 0.0121
298.1 K | – | – | 0.0108 | – | – | 0.0839 | 0.013
298.2 K | 0.146 | 0.0304 | – | 0.0118 | 0.00892 | – | –
303.1 K | – | 0.0364 | 0.012 | – | – | – | –
303.2 K | 0.163 | – | – | 0.0142 | 0.0112 | 0.102 | 0.014
308.1 K | – | – | – | – | 0.0141 | – | 0.0151
308.2 K | 0.182 | 0.0437 | 0.0134 | 0.017 | – | 0.123 | –
313.1 K | 0.203 | – | – | 0.0204 | – | 0.15 | –
313.2 K | – | 0.0525 | 0.0149 | – | 0.0177 | – | 0.0162
318.1 K | – | – | 0.0166 | 0.0245 | – | – | 0.0174
318.2 K | 0.226 | 0.063 | – | – | 0.0223 | 0.182 | –
323.1 K | – | – | – | – | 0.0281 | 0.22 | –
323.2 K | 0.253 | 0.076 | 0.0186 | 0.0294 | – | – | 0.0187
